Data: PMC9228270, “Design, Synthesis, In Silico Studies and Inhibitory Activity towards Bcr-Abl, BTK and FLT3-ITD of New 2,6,9-Trisubstituted Purine Derivatives as Potential Agents for the Treatment of Leukaemia” (Pharmaceutics, 2022)
Several values for one entry are separate records, joined by “and”; a condition that tells them apart may be missing. Identical values can stand only once. Like-named read-outs stand apart in the source and are kept apart here.

What was measured:
FLT3-ITD = molecular target: T1, FLT3-ITD (Homo sapiens, UniProt P36888, ITD); experiment: Recombinant kinase radioassay, FLT3-ITD; assay type: biochemical
T1 sequence (P36888 27-993): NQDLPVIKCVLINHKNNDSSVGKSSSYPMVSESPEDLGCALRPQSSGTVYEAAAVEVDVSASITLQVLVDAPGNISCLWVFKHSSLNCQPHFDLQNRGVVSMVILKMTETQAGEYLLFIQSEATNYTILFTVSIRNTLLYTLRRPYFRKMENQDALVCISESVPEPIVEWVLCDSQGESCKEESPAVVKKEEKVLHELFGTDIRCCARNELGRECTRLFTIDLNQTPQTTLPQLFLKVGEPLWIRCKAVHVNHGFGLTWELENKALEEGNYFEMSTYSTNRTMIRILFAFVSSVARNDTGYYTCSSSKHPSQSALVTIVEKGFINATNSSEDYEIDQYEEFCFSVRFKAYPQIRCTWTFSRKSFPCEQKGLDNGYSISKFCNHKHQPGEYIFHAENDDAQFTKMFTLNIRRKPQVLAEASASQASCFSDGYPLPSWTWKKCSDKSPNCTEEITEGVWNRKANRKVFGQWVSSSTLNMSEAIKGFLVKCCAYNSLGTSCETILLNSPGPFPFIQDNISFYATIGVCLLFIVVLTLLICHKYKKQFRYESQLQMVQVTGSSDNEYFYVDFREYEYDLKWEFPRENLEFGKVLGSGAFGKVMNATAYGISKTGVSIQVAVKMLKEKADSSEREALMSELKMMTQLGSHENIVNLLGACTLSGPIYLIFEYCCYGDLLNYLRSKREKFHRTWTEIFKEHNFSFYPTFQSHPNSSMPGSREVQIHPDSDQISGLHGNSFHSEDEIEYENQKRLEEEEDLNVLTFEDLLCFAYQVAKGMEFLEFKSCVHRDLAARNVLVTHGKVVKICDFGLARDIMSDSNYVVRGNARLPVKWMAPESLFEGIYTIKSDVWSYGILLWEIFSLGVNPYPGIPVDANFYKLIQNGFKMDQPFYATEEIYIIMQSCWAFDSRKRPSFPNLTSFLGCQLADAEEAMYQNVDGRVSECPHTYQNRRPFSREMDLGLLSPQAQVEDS
Protocol: (§1) Recombinant kinase inhibition was measured using standard radioassay. Bcr-Abl1 and Cdk-2/cyclin E kinases were produced in-house, FLT3-ITD and BTK were purchased from ProQinase. The kinases were assayed with suitable substrates (500 µM peptide […] for Abl, 1 mg/mL histone H1 for Cdk-2, 100 µM poly (Glu:Tyr; 4:1)) in the presence of ATP (1 µM for Bcr-Abl, 15 µM for Cdk-2 and BTK), 0.05 µCi [γ-^33P]ATP and the test compound in reaction buffer (60 mM HEPES-NaOH, pH 7.5, 3 mM MgCl2, 3 mM MnCl2, 3 µM Na orthovanadate, 1.2 mM DTT, 2.5 µg/50 µL PEG20.000). The reactions were stopped by adding 3% aq. H3PO4. P-81 phosphocellulose (Whatman) was used to separate phosphorylated substrates. Kinase activity was quantified using a FLA-7000 digital image analyser.

HL-60 = experiment: Cytotoxicity assay (resazurin), HL-60; assay type: cell-based; details: Homo sapiens, 72 h, three independent experiments, range 0.1 to 25 µM
Protocol: (§2) Cytotoxicity assays for the purines were quantified using the resazurin method, a dye to measure redox reactions occurring in the mitochondria of live cells. The cells were treated by tested compounds (in triplicate, six different doses) for 72 h.

K562 = experiment: Cytotoxicity assay (resazurin), K562; assay type: cell-based; details: Homo sapiens, 72 h, three independent experiments, range 0.1 to 25 µM
Protocol: as §2

MV4-11 = experiment: Cytotoxicity assay (resazurin), MV4-11; assay type: cell-based; details: Homo sapiens, 72 h, three independent experiments, range 0.1 to 25 µM
Protocol: as §2

Bcr-Abl1 = Bcr-Abl1 (Homo sapiens, UniProt P00519); experiment: Recombinant kinase radioassay, Abl; assay type: biochemical; details: ATP 1 µM, at least three independent experiments, range 0.01–100 µM
Protocol: as §1

CEM = experiment: Cytotoxicity assay (resazurin), CEM; assay type: cell-based; details: Homo sapiens, CCRF-CEM, 72 h, three independent experiments, range 0.1 to 25 µM
Protocol: as §2

BTK = molecular target: T2, BTK (Homo sapiens, UniProt Q06187); experiment: Recombinant kinase radioassay, BTK; assay type: biochemical
T2 construct: purchased ProQinase
Protocol: as §1

Ramos = experiment: Cytotoxicity assay (resazurin), Ramos; assay type: cell-based; details: Homo sapiens, 72 h, three independent experiments, range 0.1 to 25 µM
Protocol: as §2

Cdk-2/cyclin E = molecular target: T3, Cdk-2/cyclin E (Homo sapiens, UniProt P24941); experiment: Recombinant kinase radioassay, Cdk-2/cyclin E; assay type: biochemical; details: ATP 15 µM, at least three independent experiments, range 0.01–100 µM
T3 construct: made in house
Protocol: as §1

[1] = recombinant kinase, radioassay, at least three independent experiments, range 0.01–100 µM, read-out: IC50 FLT3-ITD
[2] = recombinant kinase, radioassay, ATP 15 µM, at least three independent experiments, range 0.01–100 µM, read-out: IC50 BTK
[3] = -log IC50 in molar concentration, Table S3, read-out: Experimental pIC50, CoMFA FLT3 (converted)
[4] = -log IC50 in molar concentration, Table S3, read-out: Experimental pIC50, CoMFA BTK (converted)

Chain of Bcr-Abl1 (P00519 27-1130): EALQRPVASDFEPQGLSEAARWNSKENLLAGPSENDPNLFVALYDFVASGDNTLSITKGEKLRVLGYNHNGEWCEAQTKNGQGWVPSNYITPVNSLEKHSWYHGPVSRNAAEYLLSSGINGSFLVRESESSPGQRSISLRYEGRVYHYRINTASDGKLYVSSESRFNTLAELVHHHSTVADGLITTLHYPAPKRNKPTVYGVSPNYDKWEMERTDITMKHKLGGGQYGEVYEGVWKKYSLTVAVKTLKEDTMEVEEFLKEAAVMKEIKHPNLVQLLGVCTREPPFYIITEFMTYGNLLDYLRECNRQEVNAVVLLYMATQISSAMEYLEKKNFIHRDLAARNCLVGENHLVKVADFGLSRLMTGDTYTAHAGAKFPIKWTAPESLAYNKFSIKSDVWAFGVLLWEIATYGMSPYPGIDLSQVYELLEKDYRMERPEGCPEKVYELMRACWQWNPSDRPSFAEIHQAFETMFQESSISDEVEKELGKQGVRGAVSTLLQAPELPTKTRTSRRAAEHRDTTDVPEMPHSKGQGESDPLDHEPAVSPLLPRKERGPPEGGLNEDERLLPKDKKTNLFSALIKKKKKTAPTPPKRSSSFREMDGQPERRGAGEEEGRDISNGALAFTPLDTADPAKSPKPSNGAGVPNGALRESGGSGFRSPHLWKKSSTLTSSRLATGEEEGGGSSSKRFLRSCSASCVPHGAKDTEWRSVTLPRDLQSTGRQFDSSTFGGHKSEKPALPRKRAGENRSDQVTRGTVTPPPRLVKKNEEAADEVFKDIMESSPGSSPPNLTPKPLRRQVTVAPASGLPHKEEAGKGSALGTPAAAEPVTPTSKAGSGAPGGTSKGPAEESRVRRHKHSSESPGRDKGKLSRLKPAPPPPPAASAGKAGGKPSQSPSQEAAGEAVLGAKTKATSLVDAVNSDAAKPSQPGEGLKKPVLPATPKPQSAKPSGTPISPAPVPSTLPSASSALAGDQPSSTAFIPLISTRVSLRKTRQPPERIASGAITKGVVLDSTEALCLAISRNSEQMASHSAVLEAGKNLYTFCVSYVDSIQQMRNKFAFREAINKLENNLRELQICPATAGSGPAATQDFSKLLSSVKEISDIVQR
T2 sequence (Q06187 whole entry): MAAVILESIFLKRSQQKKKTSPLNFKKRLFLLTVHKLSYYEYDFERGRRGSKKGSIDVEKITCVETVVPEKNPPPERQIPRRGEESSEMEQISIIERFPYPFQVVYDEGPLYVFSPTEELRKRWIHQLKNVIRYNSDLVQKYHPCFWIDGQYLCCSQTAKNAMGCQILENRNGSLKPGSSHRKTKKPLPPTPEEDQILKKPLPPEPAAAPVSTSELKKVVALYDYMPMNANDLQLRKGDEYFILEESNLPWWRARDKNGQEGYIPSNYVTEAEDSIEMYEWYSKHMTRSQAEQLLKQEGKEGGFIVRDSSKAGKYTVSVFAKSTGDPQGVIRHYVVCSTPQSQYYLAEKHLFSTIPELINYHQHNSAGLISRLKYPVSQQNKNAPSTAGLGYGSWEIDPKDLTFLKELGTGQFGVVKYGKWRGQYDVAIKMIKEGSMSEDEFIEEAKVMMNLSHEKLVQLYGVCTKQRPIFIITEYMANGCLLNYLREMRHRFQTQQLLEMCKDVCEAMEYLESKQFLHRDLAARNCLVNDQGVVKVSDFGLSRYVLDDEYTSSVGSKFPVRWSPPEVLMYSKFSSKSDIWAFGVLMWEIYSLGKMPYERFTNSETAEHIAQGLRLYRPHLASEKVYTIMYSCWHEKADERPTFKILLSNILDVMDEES

Structure (SMILES) | IC50 (FLT3-ITD; [1]) [nM] | GI50 (HL-60) [nM] | melting point [°C] | GI50 (K562) [nM] | GI50 (MV4-11) [nM] | IC50 (Bcr-Abl1) [nM] | GI50 (CEM) [nM] | IC50 (BTK; [2]) | GI50 (Ramos) [nM] | IC50 (Cdk-2/cyclin E) [nM] | IC50 (FLT3-ITD; [3]) [nM] | IC50 (BTK; [4]) [nM]
CN1CCN(c2ccc(Nc3nc(Nc4ccc([N+](=O)[O-])cc4)c4ncn(CC5CC5)c4n3)cc2)CC1 [Compound 4j, 9-(Cyclopropylmethyl)-N^2-(4-(4-methylpiperazin-1-yl)phenyl)-N^6-(4-nitrophenyl)-9H-purine-2,6-diamine] | 530 | 420 ± 80 | 162 to 163 | 2840 ± 1040 | 2210 ± 710 | 540 ± 20 | 2520 ± 290 | 940 ± 40 nM | 1300 ± 500 | 23800 ± 6050 |  | 
Clc1nc(Nc2ccccc2)c2ccn(CC3CC3)c2n1 [Compound 11] |  |  |  |  |  |  |  |  |  |  | 1160 | 1160
Clc1nc(Cl)c2cc[nH]c2n1 [Compound 9] |  |  |  |  |  |  |  |  |  |  | 534 | 938
CN1CCN(c2ccc(Nc3nc(Nc4ccccc4F)c4ncn(CC5CC5)c4n3)cc2)CC1 [Compound 4a, 9-(Cyclopropylmethyl)-N^6-(2-fluorophenyl)-N^2-(4-(4-methylpiperazin-1-yl)phenyl)-9H-purine-2,6-diamine] |  | 1820 ± 350 | 149 to 152 | 21300 ± 630 | 6470 ± 1820 | 4190 ± 830 | 17100 ± 400 | 14700 ± 1480 nM | 15600 ± 880 | 14000 ± 2330 |  | 
CCCCCCn1cnc2c(Nc3ccc(F)c(F)c3)nc(Nc3ccc(N4CCN(C)CC4)cc3)nc21 [Compound 5i, N^6-(3,4-Difluorophenyl)-9-hexyl-N^2-(4-(4-methylpiperazin-1-yl)phenyl)-9H-purine-2,6-diamine] | 2740 | 3910 ± 70 |  | > 25000 | 3860 ± 1080 | 34000 ± 1630 | > 25000 | < 580 nM and 460 nM | > 25000 | 47300 ± 31600 |  | 
CCCCCn1cnc2c(Nc3ccc(F)c(F)c3)nc(Nc3ccc(N4CCN(C)CC4)cc3)nc21 [Compound 5f, N^6-(3,4-Difluorophenyl)-N^2-(4-(4-methylpiperazin-1-yl)phenyl)-9-pentyl-9H-purine-2,6-diamine] | 1020 | 3610 ± 1020 |  | > 25000 | 1610 ± 630 | 1360 ± 500 | > 25000 | 930 ± 140 nM | > 25000 | 20800 ± 3180 |  | 
CCCCCCCCn1cnc2c(Nc3ccc(F)c(F)c3)nc(Nc3ccc(N4CCN(C)CC4)cc3)nc21 [Compound 5l, N^6-(3,4-Difluorophenyl)-N^2-(4-(4-methylpiperazin-1-yl)phenyl)-9-octyl-9H-purine-2,6-diamine] | > 20000 | 1510 ± 1490 |  | 11800 ± 2190 | 16300 ± 4990 | 84500 ± 5900 | > 25000 | 580 ± 330 nM | 18800 ± 2110 | 32200 ± 1330 |  | 
O=C(Cl)c1ccc([N+](=O)[O-])cc1 [Compound 6] |  |  |  |  |  |  |  |  |  |  | 2320 | 4120
Clc1nc(Cl)c2[nH]cnc2n1 [Compound 1] |  |  |  |  |  |  |  |  |  |  | 19400 | 14700
CN1CCN(c2ccc(Nc3nc(Nc4cccc(C#N)c4)c4ncn(CC5CC5)c4n3)cc2)CC1 [Compound 4f, 3-((9-(Cyclopropylmethyl)-2-((4-(4-methylpiperazin-1-yl)phenyl)amino)-9H-purin-6-yl)amino)benzonitrile] | 930 | 1560 ± 880 |  | 3680 ± 780 | 1050 ± 100 | 70 ± 10 |  | 1430 ± 290 nM | 5860 ± 3640 | 23600 ± 1150 |  | 
CCOC(=O)c1ccc(Nc2nc(Nc3ccc(N4CCN(C)CC4)cc3)nc3c2ncn3CC2CC2)cc1 [Compound 4k, Ethyl-4-((9-(cyclopropylmethyl)-2-((4-(4-methylpiperazin-1-yl)phenyl)amino)-9H-purin-6-yl)amino)benzoate] | 1160 | 1930 ± 170 |  | 2700 ± 1310 | 2430 ± 590 | 40 ± 10 | 13900 ± 1120 | 1160 ± 180 nM | 12300 ± 1580 | > 50000 |  | 
CC(C)CCn1cnc2c(Nc3ccc(F)c(F)c3)nc(Nc3ccc(N4CCN(C)CC4)cc3)nc21 [Compound 5c, N^6-(3,4-Difluorophenyl)-9-isopentyl-N^2-(4-(4-methylpiperazin-1-yl)phenyl)-9H-purine-2,6-diamine] | 790 | 1590 ± 470 |  | 9400 ± 780 | 1430 ± 560 | 2280 ± 800 | 16800 ± 3340 | 1890 ± 170 nM | 8870 ± 940 | 62500 ± 15000 |  | 
Clc1nc(Cl)c2ccn(CC3CC3)c2n1 [Compound 10] |  |  |  |  |  |  |  |  |  |  | 367 | 912
CN1CCN(C(=O)c2ccc(Nc3nc(Nc4cccc(F)c4)c4ncn(CC5CC5)c4n3)cc2)CC1 [Compound 8b, (4-((9-(Cyclopropylmethyl)-6-((3-fluorophenyl)amino)-9H-purin-2-yl)amino)phenyl)(4-methylpiperazin-1-yl)methanone] | 1600 | 1080 ± 100 | 150 to 151 | 4910 ± 10 | 1480 ± 540 |  | 20200 ± 3730 | 1720 ± 190 nM | 7070 ± 320 |  |  | 
CN1CCN(C(=O)c2ccc(N)cc2)CC1 [Compound 7] |  |  |  |  |  |  |  |  |  |  | 1250 | 1360
